According to patent US20220220100A1 (SOLUTIA CANADA INC., priority 2019, published 2022):

Assays:
Type in all cases: physicochemical
[1] = Photostability: xenon arc weathering of chromophore solutions, LCMS analysis; conditions: for Ketone (%) / Minus-2HF (%) / Minus-HF (%) / Sulfone (%) / Chromophore Remaining (%): xenon arc, 82° C. bp; for Ketone (%) / Minus-2HF (%) / Minus-HF (%) / Sulfone (%): linearly interpolated to 0.5 MJ/m2 @ 340 nm; for Chromophore Remaining (%): linearly interpolated to 0.5 MJ/m2 @ 340 nm of exposure energy; for Ratio of chromophore remaining relative to S340: interpolated to 0.5 MJ/m^2 of energy exposure at 340 nm; for Photostability (in words): weathering experiments
Source text: Photostability (resistance to light-induced degradation) may be measured by the amount of time required for the compound, or a material comprising the compound, to degrade to a certain point under light exposure. The light exposure may be constant, or cyclic. The light transmittance or absorbance of the compound, or material comprising the compound, may be determined at both a light state and dark state prior to testing, to determine a contrast ratio. During testing, the contrast ratio may be monitored (periodically or continually), the compound or material may be determined to have failed when the contrast ratio falls outside, or below, a selected range, or when the contrast ratio decreases to a percentage of the original contrast ratio. Photostability may also be expressed with reference to a light source or with reference to a type of light.
(§1) Chromophore solutions in Rhodiasolv IRIS were prepared at 1 to 10 wt % loading. Solutions were prepared in a glovebox by charging the chromophore and Rhodiasolv IRIS to a trace-clean vial, and the solution was stirred on a hotplate at 90° C. for 2-24 hours. After cooling, the chromophore solution was injected into glass weathering cells and the fill and vent ports were sealed with a thin disc of Kalrez (FFKM Perfluorinated Elastomer) and secured with a clamp and set-screw. The weathering cells were filled and sealed inside the glove box.
Measurement of Photostability
A. Fabrication of cuvettes. Two holes of 0.8 mm diameter were drilled at opposite ends in a 75×50 mm piece of float glass using a diamond drill bit in a rotary tool. The drilled glass and a matching piece of undrilled glass were then cleaned using hot soapy water, rinsed with deionized water and acetone and then dried with compressed air. A 5 mm wide frame was cut from a sheet of 50 μm thickness EVAL EF-F using a laser engraver. The EVAL frame was placed around the perimeter of one sheet of glass and sandwiched by the second sheet of glass. The glass-EVAL-glass sandwich was secured with tape and heated under vacuum (10 mmHg) for 30 minutes at 170° C. in a vacuum bag. After cooling, a third piece of float glass was PVB laminated to the non-drilled side of the sealed glass cells using Trosifol UV Extra Protect B150 PVB (400 nm UV cut-off).
B. Xenon arc weathering protocol. Devices were exposed to simulated weathering conditions inside a Xe-3-HS xenon arc chamber, manufactured by Q-labs Inc. The samples were weathered according to the following table. The devices were exposed to these conditions continuously, with no dark or spray cycles included.
C. Analysis of weathered chromophore solutions by LCMS. The set-screws, metal clamps and Kalrez plugs were removed from the cuvette to expose the fill port. A 5 mL plastic syringe (NORM-JECT®) equipped with a tip (Precision Tips, 0.010″ RED) was inserted into one fill port and the chromophore solution was withdrawn from the cuvette. The chromophore solution was then injected into a 2 mL amber vial (part number 5182-0716, Agilent Technology) prefilled with 1.5 mL LC-MS grade acetonitrile (HiPerSolbe CHROMANORM Acetonitrile, VWR BDH Chemicals). An aliquot of the acetonitrile solution (2 μL) was injected into the LC-MS system (Agilent Infinity 1290 LC-MS system with diode array detector) through an autosampler mechanism. Species in the injected sample were separated through a reverse phase column (Zorbax SB-C18, 2.1×50 mm, 1.8 μm, operated at 40° C.), using a mixture of acetonitrile (mixed with 1% formic acid v/v ratio), methanol (HiPerSolbe CHROMANORM Methanol, VWR BDH Chemicals) and water (HiPerSolbe CHROMANORM Water, VWR BDH Chemicals) as mobile phase.

[2] = Oxidation potential of ring-closed and ring-open isomers; conditions: no unit printed in table (V relative to Ag/AgCl)
Source text: In various embodiments, at a PSS, some of the chromophore will be in the ring-closed isomer, with a small, but non-zero portion of ring-open isomer. The oxidation potential of a ring-open isomer may be more anodic than the oxidation potential of a ring-closed isomer. Exposure to a potential that is too far beyond what is necessary to oxidize the ring-closed isomer may result in oxidation of the ring-open isomer, which may be irreversible and result in electrochemically-induced degradation of the chromophore.
Thus, in various embodiments, an anodic chromophore may have an oxidation potential of from about 0.4 V to 1.2 V for the ring-closed isomer and about 1.0 V to 2.5 V for the ring-open isomer relative to an Ag/AgCl reference electrode. In various embodiments, the oxidation potential for the ring-open isomer is about 250 mV more anodic than the oxidation potential for the ring-closed isomer. For example, the oxidation potential may be about 260 mV, about 280 mV, about 300 mV, about 320 mV, about 340 mV, about 360 mV, about 380 mV, about 400 mV, about 420 mV, about 440 mV, or about 460 mV more anodic than the oxidation potential for the ring-closed isomer.

[3] = Solubility in Rhodiasolv IRIS solvent; conditions: for Solubility in Rhodiasolv IRIS: Rhodiasolv IRIS (dimethyl-2-methyl glutarate), wt %; for Solubility (in words): relative to the methoxy parent chromophore
Source text: A compound with greater solubility allows for a formulation or material with a greater concentration of coloured molecule to be incorporated into a composition. This may allow for increasing the contrast ratio for a compound with a lesser absorbance at PSS. Examples of solubilizing groups for the compound include alkoxy, ether, ester or siloxy groups. In various embodiments, compounds may be soluble in the solvent component at room temperature at about 6 wt %, 7 wt %, 8 wt %, 9 wt %, 10 wt % or greater for testing to determine whether a compound has application as an exterior glazing or optical filter. If the solubility of a compound in the solvent component is too low, then insufficient darkening may be achieved in the ring-closed configuration, depending on conditions of use for the compound.
as §1

SMILES | Ketone (%) ([1]; 10 wt % in Rhodiasolv IRIS) | Minus-2HF (%) ([1]; 10 wt % in Rhodiasolv IRIS) | Minus-HF (%) ([1]; 10 wt % in Rhodiasolv IRIS) | Sulfone (%) ([1]; 10 wt % in Rhodiasolv IRIS) | Chromophore Remaining (%) ([1]; 10 wt % in Rhodiasolv IRIS) | Ratio of chromophore remaining relative to S340 ([1]; 10 wt %) | Photostability (in words) [1] | RC [O] (oxidation potential of ring-closed isomer) [2] | RO [O] (oxidation potential of ring-open isomer) [2] | Solubility in Rhodiasolv IRIS [3] | Solubility (in words) [3] | Formation of the Minus-HF degradation product (in words) [1] | other results
CC(=O)Oc1cc2oc(-c3ccc(C(C)(C)C)cc3)c(C3=C(c4cc(-c5ccc(C(C)(C)C)s5)sc4-c4ccc(C(C)(C)C)s4)C(F)(F)C(F)(F)C3(F)F)c2cc1OC(C)=O [Chromophore S367, 2-(4-(tert-butyl)phenyl)-3-(2-(5,5″-di-tert-butyl-[2,2′:5′,2″-terthiophen]-3′-yl)-3,3,4,4,5,5-hexafluorocyclopent-1-en-1-yl)benzofuran-5,6-diyl diacetate] | 1.1% | 0.0% | 56.0% | 0.0% | 40.8% | 0.45 | more rapid degradation compared to S340 | 1.12 | 1.38 | >10% | improved | – | –
COc1cc2oc(-c3ccc(C(C)(C)C)cc3)c(C3=C(c4cc(-c5ccc(C(C)(C)C)s5)sc4-c4sc(C(C)(C)C)cc4C)C(F)(F)C(F)(F)C3(F)F)c2cc1OC [Chromophore S378, 2-(4-(tert-butyl)phenyl)-3-(2-(5,5″-di-tert-butyl-3-methyl-[2,2′:5′,2″-terthiophen]-3′-yl)-3,3,4,4,5,5-hexafluorocyclopent-1-en-1-yl)-5,6-dimethoxybenzofuran] | – | – | – | – | – | – | – | 0.9 | 1.36 | <5% | – | does not occur | Ketone (%) ([1]; 3 wt % in Rhodiasolv IRIS): 0.0%; Minus-2HF (%) ([1]; 3 wt % in Rhodiasolv IRIS): 0.0%; Minus-HF (%) ([1]; 3 wt % in Rhodiasolv IRIS): 0.0%; Sulfone (%) ([1]; 3 wt % in Rhodiasolv IRIS): 7.5%; Chromophore Remaining (%) ([1]; 3 wt % in Rhodiasolv IRIS): 92.5%; Ratio of chromophore remaining relative to S340 ([1]; 3 wt %): 1.02
COCCCOc1cc2oc(-c3ccc(C(C)(C)C)cc3)c(C3=C(c4cc(-c5cc(C(C)(C)C)cs5)sc4-c4cc(C(C)(C)C)cs4)C(F)(F)C(F)(F)C3(F)F)c2cc1OCCCOC | 0.0% | 0.0% | 0.0% | 0.1% | 98.6% | 1.08 | high photostability | 0.95 | 1.39 | >10% | – | prevents the Minus-HF product | –
COCCOc1cc2oc(-c3ccc(C(C)(C)C)cc3)c(C3=C(c4cc(-c5ccc(C(C)(C)C)s5)sc4-c4ccc(C(C)(C)C)s4)C(F)(F)C(F)(F)C3(F)F)c2cc1OCCOC [Chromophore S364, 2-(4-(tert-butyl)phenyl)-3-(2-(5,5″-di-tert-butyl-[2,2′:5′,2″-terthiophen]-3′-yl)-3,3,4,4,5,5-hexafluorocyclopent-1-en-1-yl)-5,6-bis(2-methoxyethoxy)benzofuran] | 0.6% | 2.7% | 14.9% | 0.0% | 80.4% | 0.88 | decreased stability | 0.93 | 1.32 | >10% | improved | – | –
CCOC(=O)CCCOc1cc2oc(-c3ccc(C(C)(C)C)cc3)c(C3=C(c4cc(-c5ccc(C(C)(C)C)s5)sc4-c4ccc(C(C)(C)C)s4)C(F)(F)C(F)(F)C3(F)F)c2cc1OCCCC(=O)OCC [Chromophore S374, diethyl 4,4′-((2-(4-(tert-butyl)phenyl)-3-(2-(5,5″-di-tert-butyl-[2,2′:5′,2″-terthiophen]-3′-yl)-3,3,4,4,5,5-hexafluorocyclopent-1-en-1-yl)benzofuran-5,6-diyl)bis(oxy))dibutanoate] | 0.0% | 0.0% | 26.5% | 0.0% | 72.4% | 0.79 | decreased stability | 0.93 | 1.35 | >10% | improved | – | –
COc1cc2oc(-c3ccc(C(C)(C)C)cc3)c(C3=C(c4cc(-c5cc(C(C)(C)C)cs5)sc4-c4cc(C(C)(C)C)cs4)C(F)(F)C(F)(F)C3(F)F)c2cc1OC [Chromophore S377, 2-(4-(tert-butyl)phenyl)-3-(2-(4,4″-di-tert-butyl-[2,2′:5′,2″-terthiophen]-3′-yl)-3,3,4,4,5,5-hexafluorocyclopent-1-en-1-yl)-5,6-dimethoxybenzofuran] | – | – | – | – | – | – | high photostability | 0.97 | 1.42 | >5% | – | – | Ketone (%) ([1]; 5 wt % in Rhodiasolv IRIS): 0.0%; Minus-2HF (%) ([1]; 5 wt % in Rhodiasolv IRIS): 0.0%; Minus-HF (%) ([1]; 5 wt % in Rhodiasolv IRIS): 0.0%; Sulfone (%) ([1]; 5 wt % in Rhodiasolv IRIS): 0.0%; Chromophore Remaining (%) ([1]; 5 wt % in Rhodiasolv IRIS): 100.0%; Ratio of chromophore remaining relative to S340 ([1]; 5 wt %): 1.10
